Columns and labels:
[1] = tested on: psoriasis caused by imiquimod; test: Epithelial thickness of back skin by H&E staining in imiquimod psoriasis animal model; type: in vivo, Balb/c mice; conditions: after treatment for a week, skin application, compared to the IMQ group
Text: (§1) 6-week-old male Balb/c mice (Kangwon Life Science, Korea) were purchased and acclimated for a week, and psoriasis was induced using 5% imiquimod (Donga ST, Korea). FIG. 1 is a schematic experimental scheme of an animal model. Anti-psoriatic efficacy was investigated using a total of 20 animal models including 5 animals per experimental group.
(§2) In order to determine the effect of the extract of Sphallerocarpus gracilis on psoriasis caused by imiquimod, the experimental animals of Section 2-1 were used. The following four experimental groups were constructed and five animals were randomly assigned to each group:
Normal control without any treatment (Non-treatment control, NTC);
Disease group with psoriasis induced using imiquimod by the method of Section 2-1 (IMQ);
Group to the skin of which dexamethasone was applied every day after induction of psoriasis (Positive control, DEX); and
Group to the skin of which the extract of Sphallerocarpus gracilis of Example 1 was applied (Experimental group, M215) […]
After treatment for a week, the back skin tissue was removed from each animal, and then a paraffin block was prepared. The paraffin block was cut to 5 μm to prepare a slide sample, and then the change in the thickness of the skin tissue was measured through H&E staining.

[2] = tested on: filaggrin, loricrin, keratin 1 and keratin 14; test: Immunofluorescence of biomarkers for epithelial tissue damage in back skin of psoriasis animal model; type: in vivo, Balb/c mice; conditions: after treatment for a week, IMQ group decreased compared to non-treatment group
Text: as §1, §2
The experiment was conducted by inducing psoriasis with IMQ cream and then performing daily application in the amount shown in FIG. 2 to the experimental group and the DEX group. FIG. 3 is an image showing the treatment group for 7 days compared to the psoriasis-induced model as the animal experimental model.
After treatment for a week, back skin tissue was removed from each animal and a paraffin block was then prepared. A paraffin block was cut to 5 μm to prepare a slide sample, and then the change in biomarkers for epithelial tissue damage due to psoriasis was measured through immunofluorescence.

## C[C@@H]1C[C@H]2[C@@H]3CCC4=CC(=O)C=C[C@]4(C)[C@@]3(F)[C@@H](O)C[C@]2(C)[C@@]1(O)C(=O)CO [DEX, dexamethasone]
[1]
  thickness of the epithelial layer: decreased thickness
[2]
  expression level of filaggrin: increased
  expression level of keratin 1: increased
  expression level of keratin 14: increased
  expression level of loricrin: increased

— patent US11648284B2, “Composition for ameliorating psoriasis symptoms containing extract of Sphallerocarpus gracilis” (KOREA INSTITUTE OF SCIENCE AND TECHNOLOGY, priority 2020, dated 2023)
